# Data taken from patent EP4061322B1 (Institut des Sciences et Industries du Vivant et de …, priority 2019, dated 2021).
# How the values were obtained:
# [1] = target: T1, PXR (pregnane X receptor) (Homo sapiens, UniProt O75469); assay: Endocrine system: receptor activity in presence of compound and reference molecule (antagonist effect); assay type: cell-based; conditions: Figure 9; with reference molecule; even at the highest concentrations
# T1 sequence (O75469 1-434): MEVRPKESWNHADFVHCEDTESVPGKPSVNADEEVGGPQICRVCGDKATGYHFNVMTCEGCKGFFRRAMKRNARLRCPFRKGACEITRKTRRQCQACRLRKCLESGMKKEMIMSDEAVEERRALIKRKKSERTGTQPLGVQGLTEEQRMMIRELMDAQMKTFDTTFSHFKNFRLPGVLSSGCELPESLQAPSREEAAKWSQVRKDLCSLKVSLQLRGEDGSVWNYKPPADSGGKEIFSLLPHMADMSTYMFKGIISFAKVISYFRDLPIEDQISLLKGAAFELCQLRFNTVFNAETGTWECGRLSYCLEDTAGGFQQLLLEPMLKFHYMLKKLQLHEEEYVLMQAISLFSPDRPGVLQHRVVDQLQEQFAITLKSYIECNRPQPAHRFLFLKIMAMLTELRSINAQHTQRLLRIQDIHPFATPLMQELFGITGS
# Description: (§1) L'effet des composés 1 et 4 sur le système endocrinien a été évalué pour leurs propriétés agonistes et antagonistes sur différents récepteurs : ERα (récepteur œstrogène alpha), AR (récepteur des androgènes) et PXR (pregnane X receptor). Un premier test consiste à étudier l'activité des récepteurs en présence du composé 1 ou 4 (effet agoniste). […] Un second test vise à l'étude de l'activité des récepteurs en présence du composé 1 ou 4 et d'une molécule de référence pour chaque récepteur (effet antagoniste).
# [2] = target: T2, ERα (récepteur œstrogène alpha) (Homo sapiens, UniProt P03372); assay: as above; assay type: cell-based; conditions: Figure 7; with reference molecule; even at the highest concentrations
# T2 sequence (P03372 1-595): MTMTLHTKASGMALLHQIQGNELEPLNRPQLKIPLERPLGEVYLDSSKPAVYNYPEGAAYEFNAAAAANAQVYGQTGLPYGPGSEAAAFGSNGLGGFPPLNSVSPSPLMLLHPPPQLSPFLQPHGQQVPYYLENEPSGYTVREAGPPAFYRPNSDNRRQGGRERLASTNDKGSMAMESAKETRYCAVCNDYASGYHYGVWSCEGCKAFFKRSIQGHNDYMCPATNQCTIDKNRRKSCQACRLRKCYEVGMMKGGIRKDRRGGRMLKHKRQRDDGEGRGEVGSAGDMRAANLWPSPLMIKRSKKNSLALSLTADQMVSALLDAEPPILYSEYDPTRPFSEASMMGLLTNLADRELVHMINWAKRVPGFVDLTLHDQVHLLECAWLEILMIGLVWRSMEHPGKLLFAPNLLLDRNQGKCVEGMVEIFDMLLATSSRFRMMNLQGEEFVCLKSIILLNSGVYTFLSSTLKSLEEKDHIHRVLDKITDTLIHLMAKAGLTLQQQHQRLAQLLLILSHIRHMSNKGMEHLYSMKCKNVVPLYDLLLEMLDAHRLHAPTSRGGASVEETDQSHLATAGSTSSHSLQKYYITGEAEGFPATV
# Description: as §1
# [3] = target: T3, AR (récepteur des androgènes) (Homo sapiens, UniProt P10275); assay: as above; assay type: cell-based; conditions: Figure 8; with reference molecule; even at the highest concentrations
# T3 sequence (P10275 1-920): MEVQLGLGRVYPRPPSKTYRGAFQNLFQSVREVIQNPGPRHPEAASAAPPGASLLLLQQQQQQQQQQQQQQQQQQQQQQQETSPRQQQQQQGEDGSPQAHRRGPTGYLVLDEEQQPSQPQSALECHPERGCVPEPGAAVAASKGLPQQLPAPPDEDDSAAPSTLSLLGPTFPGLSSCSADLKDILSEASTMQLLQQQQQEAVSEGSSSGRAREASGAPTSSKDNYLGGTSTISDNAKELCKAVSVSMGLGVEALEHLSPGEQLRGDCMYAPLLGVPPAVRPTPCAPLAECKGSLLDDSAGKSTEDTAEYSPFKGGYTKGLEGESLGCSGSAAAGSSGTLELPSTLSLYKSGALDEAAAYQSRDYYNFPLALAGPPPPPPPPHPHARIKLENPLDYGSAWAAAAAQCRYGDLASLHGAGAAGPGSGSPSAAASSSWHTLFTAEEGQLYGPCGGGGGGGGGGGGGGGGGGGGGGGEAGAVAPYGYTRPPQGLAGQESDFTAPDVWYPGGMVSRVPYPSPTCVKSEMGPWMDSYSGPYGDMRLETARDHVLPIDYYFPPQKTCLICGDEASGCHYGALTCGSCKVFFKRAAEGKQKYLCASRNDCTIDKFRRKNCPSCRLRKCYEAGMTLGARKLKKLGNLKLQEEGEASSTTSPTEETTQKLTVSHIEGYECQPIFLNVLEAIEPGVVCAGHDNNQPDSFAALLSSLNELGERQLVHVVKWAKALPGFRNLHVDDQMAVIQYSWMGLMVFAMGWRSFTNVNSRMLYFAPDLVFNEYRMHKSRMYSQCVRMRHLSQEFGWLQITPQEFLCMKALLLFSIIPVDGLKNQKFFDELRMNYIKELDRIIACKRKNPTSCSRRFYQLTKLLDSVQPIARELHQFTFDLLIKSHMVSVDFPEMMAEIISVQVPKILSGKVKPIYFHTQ
# Description: as §1
# [4] = UV-Vis absorption spectrum (anti-UVA and blue light properties); assay type: physicochemical; set-up: λmax: unit not given here; conditions: Tableau 1
# Description: Un spectre UV-Vis a été réalisé dans l'éthanol à 10^-5 mol/L pour les composés 1 à 7, qui sont des dérivés furaniques de l'acide de Medrum. L'Avobenzone, une molécule très largement utilisée comme filtre UVA dans les crèmes solaires, a été utilisée en tant que référence.
# Cette méthodologie a été employée pour évaluer les propriétés anti-UV des composés 8 à 11, qui sont des dérivés phénoliques de l'acide de Medrum, des composés 12 à 15 qui sont des dérivés pyrroliques de l'acide de Meldrum, des composés 16 à 18 qui sont des dérivés vinylphénol de l'acide de Meldrum, le composé 19 qui est un dérivé vinylfurane de l'acide de Meldrum.
# [5] = target: T1, PXR (pregnane X receptor); assay: Endocrine system: receptor activity in presence of compound (agonist effect); assay type: cell-based; conditions: Figure 6, C = 10 µM; even at the highest concentrations
# Description: as §1
# [6] = target: T2, ERα (récepteur œstrogène alpha); assay: as above; assay type: cell-based; conditions: Figure 6, C = 10 µM; even at the highest concentrations
# Description: as §1
# [7] = target: T3, AR (récepteur des androgènes); assay: as above; assay type: cell-based; conditions: Figure 6, C = 10 µM; even at the highest concentrations
# Description: as §1
# [8] = Photostability under UV exposure; assay type: physicochemical; conditions: Tableau 1; for Perte d'activité (%): UV exposure λ 300 nm, P 8.32 W/m^2, one hour
# Description: La stabilité des composés 1 à 7 aux UV a été étudiée par soumission à une exposition (λ : 300 nm, P : 8.32 W/m^2) pendant une heure.
# L'Avobenzone a été utilisée comme molécule de référence. Cette molécule est connue pour être […] sous exposition UV, ce qui n'est pas du tout le cas d'autres composés bio-sourcés.
# La photostabilité des composés 8 à 11 a également été étudiée, de manière identique au test appliqué aux composés 1 à 7. Les résultats obtenus sont présentés dans le Tableau 2. […] Cette méthodologie a été appliquée à l'ensemble des molécules décrites ci-dessus. Tableau 2 : Stabilité des composés 8 à 11 soumis à une exposition aux UV.
structure (smiles),measurement,setting,value
"CC1(C)OC(=O)C(=Cc2ccc(CO)o2)C(=O)O1 [compound 4, 5-[[5-(Hydroxymethyl)-2-furanyl]methylene]-2,2-dimethyl-1,3-dioxane-4,6-dione]",effet antagoniste sur le récepteur PXR,[1],n'empêchent pas l'activité des récepteurs envers les molécules de référence
same,effet antagoniste sur le récepteur ERα,[2],n'empêchent pas l'activité des récepteurs envers les molécules de référence
same,effet antagoniste sur le récepteur AR,[3],n'empêchent pas l'activité des récepteurs envers les molécules de référence
same,λmax,[4],374
same,effet agoniste (activité du récepteur PXR),[5],n'induisent pas une activité anormale des récepteurs
same,effet agoniste (activité du récepteur ERα),[6],n'induisent pas une activité anormale des récepteurs
same,effet agoniste (activité du récepteur AR),[7],n'induisent pas une activité anormale des récepteurs
same,Perte d'activité (%),[8],< 5%
same,Perte d'activité (%),[8]; listed as Composé (4),"3,4%"
same,A (t=0 min),[8]; absorbance before UV exposure,"0,28814"
